# What was measured:
# [1] = biological target: T1, human muscarinic M1 receptor (Homo sapiens, UniProt P11229); assay: Alphascreen Surefire phospho-ERK1/2 functional assay, M1; format: cell-based; conditions: for EC50 / M1 % Emax cf. ACh: CHO cells stably expressing human M1; for EC50: phospho-ERK1/2, read-out: pEC50 M1 (converted); for Emax: CHO, read-out: M1 % Emax cf. ACh, CHO cells stably expressing human M1; for Emax / M1 % Emax cf. ACh: Emax relative to ACh
# T1 construct: expressed in transfected cells
# T1 sequence (P11229 1-460): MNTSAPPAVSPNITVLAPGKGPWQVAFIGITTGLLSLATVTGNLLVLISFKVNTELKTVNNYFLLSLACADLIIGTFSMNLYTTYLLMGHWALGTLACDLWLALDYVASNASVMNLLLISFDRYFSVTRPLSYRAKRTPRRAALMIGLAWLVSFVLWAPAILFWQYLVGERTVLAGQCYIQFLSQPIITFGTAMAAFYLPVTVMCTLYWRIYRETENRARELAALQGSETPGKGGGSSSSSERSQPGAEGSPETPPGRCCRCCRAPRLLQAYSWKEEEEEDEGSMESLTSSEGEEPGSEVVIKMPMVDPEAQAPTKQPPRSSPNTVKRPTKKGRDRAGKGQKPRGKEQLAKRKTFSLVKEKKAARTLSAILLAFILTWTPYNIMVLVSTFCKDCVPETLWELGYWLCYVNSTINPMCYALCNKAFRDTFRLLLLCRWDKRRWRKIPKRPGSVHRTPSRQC
# Procedure: (§1) CHO cells stably expressing the human muscarinic M1, M2, M3 or M4 receptor were plated (25K/well) onto 96-well tissue culture plates in MEM-alpha+10% dialysed FBS. Once adhered, cells were serum-starved overnight. Agonist stimulation was performed by the addition of 5 μL agonist to the cells for 5 min (37° C.). Media was removed and 50 μL of lysis buffer added. After 15 min, a 4 μL sample was transferred to 384-well plate and 7 μL of detection mixture added. Plates were incubated for 2 h with gentle agitation in the dark and then read on a PHERAstar plate reader.
# (§2) pEC50 and Emax figures were calculated from the resulting data for each receptor subtype.
# [2] = biological target: T2, human muscarinic M4 receptor (Homo sapiens, UniProt P08173); assay: Alphascreen Surefire phospho-ERK1/2 functional assay, M4; format: cell-based; conditions: for EC50 / M4 % Emax cf. ACh: CHO cells stably expressing human M4; for EC50: phospho-ERK1/2, read-out: pEC50 M4 (converted); for Emax: CHO, read-out: M4 % Emax cf. ACh, CHO cells stably expressing human M4; for Emax / M4 % Emax cf. ACh: Emax relative to ACh
# T2 construct: expressed in transfected cells
# T2 sequence (P08173 1-479): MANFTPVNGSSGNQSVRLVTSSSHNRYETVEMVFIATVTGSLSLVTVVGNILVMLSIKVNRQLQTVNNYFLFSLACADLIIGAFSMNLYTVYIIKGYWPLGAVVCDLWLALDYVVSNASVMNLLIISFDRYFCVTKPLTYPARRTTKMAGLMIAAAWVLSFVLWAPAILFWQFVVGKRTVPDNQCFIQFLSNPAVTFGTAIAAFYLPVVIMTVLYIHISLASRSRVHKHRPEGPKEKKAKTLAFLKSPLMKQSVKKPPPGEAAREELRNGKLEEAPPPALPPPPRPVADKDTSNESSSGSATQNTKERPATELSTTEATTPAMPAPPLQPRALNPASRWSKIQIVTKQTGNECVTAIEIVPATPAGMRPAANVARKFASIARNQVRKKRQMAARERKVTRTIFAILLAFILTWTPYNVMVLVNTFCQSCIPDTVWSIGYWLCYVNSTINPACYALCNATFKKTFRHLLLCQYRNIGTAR
# Procedure: as §1, §2
# [3] = biological target: T3, human muscarinic M2 receptor (Homo sapiens, UniProt P08172); assay: Alphascreen Surefire phospho-ERK1/2 functional assay, M2; conditions: for Emax: CHO, read-out: M2 % Emax cf. ACh, CHO cells stably expressing human M2; for EC50: pEC50 M2, CHO cells stably expressing human M2
# T3 sequence (P08172 1-466): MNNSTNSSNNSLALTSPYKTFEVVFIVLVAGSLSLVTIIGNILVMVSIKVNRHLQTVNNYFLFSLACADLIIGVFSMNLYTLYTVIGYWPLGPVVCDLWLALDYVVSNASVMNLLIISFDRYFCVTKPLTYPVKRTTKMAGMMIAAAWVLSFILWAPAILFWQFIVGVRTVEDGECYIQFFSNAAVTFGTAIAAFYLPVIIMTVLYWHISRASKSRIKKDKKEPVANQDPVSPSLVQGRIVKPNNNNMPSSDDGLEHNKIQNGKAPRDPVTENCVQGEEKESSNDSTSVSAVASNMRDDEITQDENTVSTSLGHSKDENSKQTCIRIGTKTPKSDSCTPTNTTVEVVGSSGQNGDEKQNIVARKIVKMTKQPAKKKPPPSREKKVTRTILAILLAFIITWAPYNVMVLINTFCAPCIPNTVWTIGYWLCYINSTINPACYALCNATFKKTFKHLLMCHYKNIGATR
# Procedure: as §1, §2
# [4] = biological target: human muscarinic M3 receptor (Homo sapiens, UniProt P20309); assay: Alphascreen Surefire phospho-ERK1/2 functional assay, M3; conditions: for Emax: CHO, read-out: M3 % Emax cf. ACh, CHO cells stably expressing human M3; for Emax / M3 % Emax cf. ACh: Emax relative to ACh
# Procedure: as §1, §2
# [5] = tested on: d-amphetamine induced hyperactivity in rats; assay: d-Amphetamine-induced hyperactivity in rats; format: in vivo; conditions: positive control dose, previously observed
# Procedure: Effect of a Novel Test Compound and Xanomeline on d-Amphetamine-Induced Hyperactivity in Rats
# The aim of the study is to examine the effect of a novel test compound on d-amphetamine induced hyperactivity in rats. Schizophrenia is a complex multifactorial disease that cannot be fully represented by a single experimental procedure. Antipsychotic-like behaviour was assessed in rats by the inhibition of hyperactivity (or hyperlocomotion) elicited by d-amphetamine. This procedure is sensitive to clinically relevant dopamine receptor antagonists and is therefore considered suitable for comparing muscarinic agonists that influence dopaminergic signalling. […] Statistical analysis typically involved three-way analysis of covariance or robust regression with treatment, day and rack as factors and activity during the 30 minutes prior to treatment as a covariate, followed by appropriate multiple comparison tests. A P value of <0.05 was considered statistically significant and is marked accordingly in all subsequent figures.
# [6] = CHO cells stably expressing human M3
# Sequence of human muscarinic M3 receptor (P20309 whole entry): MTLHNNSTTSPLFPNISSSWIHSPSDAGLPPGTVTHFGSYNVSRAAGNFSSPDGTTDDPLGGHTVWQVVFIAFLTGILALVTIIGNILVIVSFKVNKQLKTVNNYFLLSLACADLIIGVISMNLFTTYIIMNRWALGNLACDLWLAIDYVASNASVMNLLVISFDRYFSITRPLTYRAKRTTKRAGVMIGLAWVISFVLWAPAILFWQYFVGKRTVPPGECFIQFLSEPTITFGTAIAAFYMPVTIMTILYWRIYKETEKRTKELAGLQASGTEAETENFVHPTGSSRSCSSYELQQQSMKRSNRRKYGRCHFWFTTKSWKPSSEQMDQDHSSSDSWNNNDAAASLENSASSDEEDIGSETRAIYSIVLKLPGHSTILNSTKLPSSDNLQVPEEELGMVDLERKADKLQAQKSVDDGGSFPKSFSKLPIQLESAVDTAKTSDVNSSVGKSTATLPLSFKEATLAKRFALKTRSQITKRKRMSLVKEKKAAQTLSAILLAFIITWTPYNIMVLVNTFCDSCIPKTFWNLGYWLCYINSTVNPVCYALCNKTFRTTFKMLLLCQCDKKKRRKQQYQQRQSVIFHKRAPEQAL
EC50 [1] [nM],Emax [1] [%],EC50 [2] [nM],Emax [2] [%],Emax ([3]; Emax relative to ACh) [%],EC50 ([3]; phospho-ERK1/2) [nM],EC50 [4] [nM],Emax [4] [%],M1 % Emax cf. ACh [1],M4 % Emax cf. ACh [2],"M3 % Emax cf. ACh [4, 6]","M2 % Emax cf. ACh ([3]; CHO cells stably expressing human M2, Emax relative to ACh)","pEC50 M2 ([3]; CHO cells stably expressing human M2, phospho-ERK1/2)","pEC50 M3 ([4]; CHO cells stably expressing human M3, phospho-ERK1/2)",Compound,d-amphetamine induced hyperactivity [5]
7940,37,39.8,109,4,> 20000,> 20000,6,,,,,,,"CCOC(=O)N1CCC2(CC(N3CCC4(CC3)OC(=O)N(CCF)C4(C)C)C2)C1 (single isomer, unassigned) [4-40 Isomer 2]",
> 20000,8,100,86,5,> 20000,> 20000,42,,,,,,,"CCOC(=O)N1CCC2(CC(N3CCC4(CC3)OC(=O)N(CCOC)C4(C)C)C2)C1 (single isomer, unassigned) [4-41 Isomer 2]",
> 20000,6,79.4,75,5,> 20000,> 20000,6,,,,,,,"CCOC(=O)N1CCC2(CC(N3CCC4(CC3)OC(=O)N(CC(F)(F)F)C4(C)C)C2)C1 (single isomer, unassigned) [4-43 Isomer 2]",
200,,50.1,,7,> 20000,> 20000,,(40) %,(43) %,(3) %,,,,"CCOC(=O)N1CCC2(CC(N3CCC4(CC3)OC(=O)N3CCCC34)C2)C1 (single isomer, unassigned) [4-44 Isomer 3]",
1260,,79.4,,,,,,(67) %,(97) %,(10) %,(14) %,<4.7,<4.7,"CCOC(=O)N1CCC2(CC(N3CCC4(CC3)OC(=O)N3CCCC34)C2)C1 (single isomer, unassigned) [4-44 Isomer 4]",
126,92,316,50,143,> 20000,> 20000,5,,,,,,,"CCOC(=O)N1CCC2(CC(N3CCC4(CC3)CNC(=O)N4)C2)C1 (single isomer, unassigned) [5-2 Isomer 2]",
631,77,126,68,13,> 20000,> 20000,11,,,,,,,"CCN1NC(=O)CC12CCN(C1CC3(CCN(C(=O)OC)C3)C1)CC2 (single isomer, unassigned) [6-1 Isomer 2]",
63.1,109,20,114,0,> 20000,> 20000,10,,,,,,,"CCOC(=O)N1CCC2(CC(N3CCC4(CC3)CC(=O)NN4CC)C2)C1 (single isomer, unassigned) [6-2 Isomer 2]",
31.6,89,3.98,100,20,> 20000,> 20000,26,,,,,,,"CCCN1NC(=O)CC12CCN(C1CC3(CCN(C(=O)OCC)C3)C1)CC2 (single isomer, unassigned) [6-4 Isomer 2]",
158,,316,,3,> 20000,> 20000,4,(71) %,26) %,,,,,"CCOC(=O)N1CCC2(CC(N3CCC4(CC3)CC(=O)NN4Cc3ccccc3)C2)C1 (single isomer, unassigned) [6-6 Isomer 2]",
3160,55,63.1,103,10,> 20000,> 20000,100,,,,,,,"CCOC(=O)N1CCC2(CC(N3CCC4(CC3)CC(=O)N(CC)N4CC)C2)C1 (single isomer, unassigned) [6-8 Isomer 2]",
> 20000,17,39.8,84,1,> 20000,> 20000,50,,,,,,,"CCCN1C(=O)CC2(CCN(C3CC4(CCN(C(=O)OCC)C4)C3)CC2)N1CC (single isomer, unassigned) [6-9 Isomer 2]",
> 20000,12,3.16,39,2,> 20000,> 20000,4,,,,,,,"CCOC(=O)N1CC2(CCC(N3CCC4(CC3)OC(=O)NC4(C)C)C2)C1 (single isomer, unassigned) [8-3 Isomer 2]",
1000,56,501,95,14,> 20000,> 20000,24,,,,,,,"CCOC(=O)N1CC2(CC(N3CCC4(CC3)OC(=O)N(CC)C4(C)C)C2)C1 [Example 2-4, ethyl 6-(3-ethyl-4,4-dimethyl-2-oxo-1-oxa-3,8-diazaspiro[4.5]dec-8-yl)-2-azaspiro[3.3]heptane-2-carboxylate]",
,,,,,,,,,,,,,,CCCCCCOc1nsnc1C1=CCCN(C)C1 [xanomeline],significantly reduce

# Reference: patent US10167284B2, “Spirocyclic compounds as agonists of the muscarinic M1 receptor and/or M4 receptor” (HEPTARES THERAPEUTICS LIMITED, priority 2015, dated 2019)
